From US12599620B2, “Method for the treatment of chronic fatigue syndrome using an inhibitory or cytotoxic agent against plasma cells” (Vestlandets Innovasjonsselskap AS, priority 2019, dated 2026)

What was measured:
lupus nephritis in mice = conditions: Bortezomib plus B-cell depletion; cited from earlier work
[1] = tested on: patients with N-Methyl-D-Aspartate (NMDA) receptor antibody-mediated encephalitis; conditions: refractory to first and second line therapy; cited from earlier work
ME/CFS patients [2] = assay: Bortezomib treatment of ME/CFS patients (case reports Patient 1, Patient 2); format: in vivo, human; conditions: for clinical effect on ME/CFS symptoms: PEM, pain
Description: They received Bortezomib subcutaneously says 1, 4, 11 and 15. […] They therefore received the third course of Bortezomib as an intravenous infusion with the same dose 1.3 mg/m^2, given at days 1, 4, 8 and 11.
They had increasing energy, increased exertion and was able to perform many new tasks. […] The self-reported symptom improvement was supported by measured steps per 24 hours (Fitbit armband) and in the response period we registered more than 10.000 steps per day.
The effect lasted for approximately 7 weeks before they started experiencing gradual relapse of the ME/CFS symptoms.
[…] Fitbit armband verified […] description of improvement, with increasing steps per 24 hours from mean 1500-2000 before intervention to approximately 4000, up to 7000 on single days, after response.

ME/CFS patients [3] = conditions: cited from earlier work; for effect on ME/CFS symptoms: patients with longstanding ME/CFS given the drug for an acquired cancer
ME/CFS patients [4] = conditions: Patient 2; open-label trial, cyclophosphamide intravenous infusions

Structure (SMILES)	outcome (lupus nephritis in mice)	clinical outcome [1]	duration of effect before gradual relapse (ME/CFS patients [2]; Patient 1)	measured steps per 24 hours (Fitbit armband) in the response period (ME/CFS patients [2]; Patient 1)	clinical effect on ME/CFS symptoms (ME/CFS patients [2]; Patient 1, cognitive disturbances, sleep problems)	side effects (ME/CFS patients [2]; Patient 1, first course 1.0 mg/m^2 subcutaneously)	side effects (ME/CFS patients [2]; Patient 1, second course 1.3 mg/m^2 subcutaneously)	side effects (ME/CFS patients [2]; Patient 1, third course 1.3 mg/m^2 intravenous infusion)	start of gradual improvement of ME/CFS symptoms, from start of bortezomib treatment (ME/CFS patients [2]; Patient 1, three courses Bortezomib 1.0-1.3 mg/m^2 sc/iv) [week]	response lasting until time after the last Bortezomib infusion (ME/CFS patients [2]; Patient 2) [weeks]	steps per 24 hours on single days after response (ME/CFS patients [2]; Patient 2)	side effects (ME/CFS patients [2]; Patient 2, after the last (sixth) course)	start of improvement of ME/CFS symptoms, after start of Bortezomib intervention (ME/CFS patients [2]; Patient 2, courses 1.0 then 1.3 mg/m^2) [weeks]	clinical effect on ME/CFS symptoms (ME/CFS patients [2]; Patient 2, energy, dizziness, cognitive function)	side effects (ME/CFS patients [2]; Patient 2, first course 1.0 mg/m^2 subcutaneously)	total duration of response before gradual relapse (ME/CFS patients [2]; Patient 2, in total 6 courses) [weeks]	steps per 24 hours (Fitbit armband) after response (ME/CFS patients [2]; Patient 2, mean 1500-2000 before intervention)	effect on ME/CFS symptoms (ME/CFS patients [3])	share of patients with significant clinical improvements of long duration (ME/CFS patients [3]; phase II trial, 6 courses of Cyclophosphamide)	duration of clinical response before gradual relapse (ME/CFS patients [4])
CC(C)C[C@H](NC(=O)[C@H](Cc1ccccc1)NC(=O)c1cnccn1)B(O)O [Bortezomib]	sustained plasma cell depletion and amelioration of lupus nephritis	clinical improvement and reduction of pathologic autoantibodies	approximately 7 weeks	more than 10.000 steps per day	gradual improvement of all their ME/CFS symptoms	no bortezomib-associated side effects except an exanthema around the injection site	increasing local reaction at the injection site and with some transient fatigue and pain in the muscles	transient exanthema along the vein on the arm	10	6	up to 7000 steps per 24 hours	discomfort in their lower extremities at the legs and feet, and some constipation	7	gradual and consistent improvement of all their ME/CS symptoms	minimal skin reaction at the injection site and no other side effects	16	approximately 4000 steps per 24 hours	–	–	–
O=P1(N(CCCl)CCCl)NCCCO1 (stereo not drawn) [Cyclophosphamide]	–	–	–	–	–	–	–	–	–	–	–	–	–	–	–	–	–	significant symptomatic improvement	more than half the patients	almost a year
O=P1(NCCCl)OCCCN1CCCl (stereo not drawn) [Ifosfamide]	–	–	–	–	–	–	–	–	–	–	–	–	–	–	–	–	–	significant symptomatic improvement	–	–
